This is an account of results in patent publication US20150133411A1, “COMPOUNDS WITH TRPV4 ACTIVITY, COMPOSITIONS AND ASSOCIATED METHODS THEREOF” (The University of Utah Research Foundation, priority 2012, published 2015).

One test relates to Müller cells. The test is described as follows: Arachidonic acid-induced [Ca2+]i in Müller cells. It is filed as cell-based. The following applies: 1 μM, 10 μM arachidonic acid. On the procedure:
This response is blocked by Compound 1 (1 μM).

Another test relates to retinal ganglion cell. The test is described as follows: High-Speed Pressure Clamp, pressure-induced inward currents. The note with it: voltage-clamped retinal ganglion cell, pressure steps 10 to 50 mm Hg. It is filed as cell-based. On the procedure: The cell was voltage clamped and stimulated with the High-Speed Pressure Clamp method, as detailed by Besch et al (Pflugers Arch. 2002 October; 445(1):161-6). This method consists of a specialized headstage coupled to a piezo element in the pressure/vacuum control valve. By balancing the access of pressure to the patch pipette, the device generates rapid and reproducible pressure steps of >±200 mm Hg. Channel activity is recorded in the cell-attached mode or the membrane is “zapped” into the outside-out configuration.

Test [1] deals with MB mouse model of glaucoma. The test is described as follows: IOP in microbead (MB) mouse model of glaucoma, IP dosing. It is filed as in vivo. The following applies: 10 mg/kg body weight IP; MB-injected mice. On the procedure:
FIG. 2 confirms that the mouse model for glaucoma causes RGC degeneration. Specifically, microbeads (MBs) were injected into the anterior chamber of a mouse eye. The MBs increase intraocular IOP above 15 mm Hg by blocking outflow of the aqueous humor within the anterior chamber of the eye. MBs were reinjected as needed to maintain a high IOP, typically one injection every two weeks. Contralateral eyes were injected intraocularly with the vehicle PBS (phosphate buffered saline) as controls. […] IOP levels were measured at least twice weekly before and after intraocular injections. After injections, mice recovered for 48 hours before IOP measurements resumed. […] Retinas were then removed and processed for immunohistochemistry (IHC). […] After rinsing with PBS, PBS containing the secondary antibody conjugated to fluorophores (Alexa 488 or Alexa 594; […] Retinas were rinsed and flat-mounted on microscope slides. Mounting medium was added and retinal wholemounts were coverslipped. The density of RGCs was imaged with a confocal microscope (Zeiss LSM 510) and quantified by counting NeuN-, CFP- and/or Tuj-1-labeled somata in the RGC layer of the retinal wholemount preparation. Injection of microbeads induces RGC degeneration after 8 weeks but not after 4 weeks. […] Mice were sedated with IP injection of Avertin with final amount calculated by weight (e.g., 0.5 ml for 21-24 g animals). […]

For the next test, the system named is retinal ganglion cells. The test is described as follows: RGC density (TuJ-1+, CFP+) in retinal wholemounts of MB-injected mice. It is filed as in vivo, mouse. The procedure:
FIG. 2 confirms that the mouse model for glaucoma causes RGC degeneration. Specifically, microbeads (MBs) were injected into the anterior chamber of a mouse eye. The MBs increase intraocular IOP above 15 mm Hg by blocking outflow of the aqueous humor within the anterior chamber of the eye. MBs were reinjected as needed to maintain a high IOP, typically one injection every two weeks. Contralateral eyes were injected intraocularly with the vehicle PBS (phosphate buffered saline) as controls. […] IOP levels were measured at least twice weekly before and after intraocular injections. After injections, mice recovered for 48 hours before IOP measurements resumed. Following 4 or 8 weeks of IOP elevation, mice were intracardially perfused with 4% paraformaldehyde in 1× PBS to fix the retinas. Retinas were then removed and processed for immunohistochemistry (IHC). Whole retinas were rinsed with 1× PBS three times at room temperature then incubated in blocking buffer (1× PBS+1% BSA). […] The density of RGCs was imaged with a confocal microscope (Zeiss LSM 510) and quantified by counting NeuN-, CFP- and/or Tuj-1-labeled somata in the RGC layer of the retinal wholemount preparation. […]
RGD density was quantified in retinas isolated from TuJ-1^+ mice and transgenic Thy1-CRP^+ transgenic mice that had been injected with either MBs or vehicle (PBS) then dosed with either compound 1 or vehicle (PBS). […] TuJ-1 was quantified by immunohistochemistry using a Tuj-1-specific antibody conjugated to a fluorescent Alexa 488 or Alexa 594 secondary antibody. […] For fluorescence immunocytochemistry, retinal wholemounts were washed in PBS, then placed for 30 min. to 1 hour in blocking solution (10 ml PBS, 30 μL Triton-X 100, 100 mg bovine serum albumin, 100 μL 10% w/v Na azide solution) in OCT (Ted Pella, Redding, Pa.). […]

Structures are written as SMILES.

In the case of `Cc1c(C(=O)Nc2cccc(C(F)(F)F)c2)cc(-c2ccccc2)n1CCCN1CCOCC1` [Compound 1, N-(3-(trifluoromethyl)phenyl)-2-methyl-1-(3-morpholinopropyl)-5-phenyl-1H-pyrrole-3-carboxamide], the “effect on arachidonic acid-induced [Ca2+]i increase” value in the test with Müller cells was “blocked”. Further, the pressure-induced inward currents result in the test on retinal ganglion cell is “reversibly antagonized”. Moreover, the “MB-induced increase in IOP” value in test [1] is listed as “blocked the increase in IOP to the level observed in control mice”. Also, the “TuJ-1+ cells in alpha, beta and omega regions” value with retinal ganglion cells (MB-injected mice) is recorded as “rescues RGCs across all regions of the retina”. For the same molecule, the “density of RGCs (TuJ-1+ and Thy1:CFP+ cells)” value in the test on retinal ganglion cells (MB-injected mice, 8 weeks of increased IOP) is recorded as “RGC loss was rescued”. In the test with retinal ganglion cells (Thy1-CFP transgenic mice, MB-injected), the “CFP+ cells in alpha, beta and omega regions” value was “rescues RGCs across all regions of the retina”.
